These results are taken from patent US20220265845A1, “AMINOTHIOLESTER COMPOUNDS AND USES THEREOF” (ADVANCED BIODESIGN, priority 2019, published 2022).

As a reminder, the kinact/KI is the second-order rate constant of inactivation. As usually defined, the IC50 is the concentration needed to halve the response being measured.

The target in one test is T1, Human recombinant ALDH2 (Homo sapiens, UniProt P05091).
T1 construct: purchased Creative BioMart, NY, USA
T1 sequence (P05091 18-517): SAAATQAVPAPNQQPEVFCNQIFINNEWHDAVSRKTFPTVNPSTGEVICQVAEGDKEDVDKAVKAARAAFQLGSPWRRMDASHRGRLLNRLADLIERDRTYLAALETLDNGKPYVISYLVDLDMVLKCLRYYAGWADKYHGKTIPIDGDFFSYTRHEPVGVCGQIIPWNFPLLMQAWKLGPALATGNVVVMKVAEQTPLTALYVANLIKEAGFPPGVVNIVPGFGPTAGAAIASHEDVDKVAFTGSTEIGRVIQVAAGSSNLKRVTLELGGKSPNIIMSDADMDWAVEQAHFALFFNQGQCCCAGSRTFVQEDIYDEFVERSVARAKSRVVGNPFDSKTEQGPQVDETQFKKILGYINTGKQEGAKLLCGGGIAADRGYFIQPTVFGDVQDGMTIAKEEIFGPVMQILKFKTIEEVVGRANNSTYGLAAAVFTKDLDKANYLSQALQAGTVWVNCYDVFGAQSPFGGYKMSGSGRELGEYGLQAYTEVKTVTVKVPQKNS
Nature of the test: Kinetic parameters and inhibition type from Kobs versus inhibitor concentration plots. In kind it is biochemical. The note with it: from Kobs versus [I] plots. How it is done: (§1) The kinetic data are expressed as the mean±standard error from three independent determination. Kinact/Ki was determined from Kobs versus concentration of the inhibitor [I] plots. […] The Kobs were obtained from negative exponential fit using non-linear regression program GraFit 5.0 (Erithacus software).
(§2) To determine the inhibition mechanisms of the tested compounds for each isoenzyme, the corresponding Kobs were calculated as mentioned above, plotting product concentration vs time incubation of the enzymes with the test compounds at 300 μM, 200 μM, 100 μM, 50 μM, 20 μM and 10 μM. The kobs were obtained for each concentration of inhibitor tested, from the negative exponential fit using non-linear regression program GraFit 5.0 (Erithacus software). Finally, the kinetic parameter of kinact/KI was determined from the plot of kobs versus the corresponding concentration of inhibitor. The slope of the linear fit of data indicated the rate constant in μM^−1·min^−1.

The target of test [1] is T2, Human recombinant ALDH1A3 (Homo sapiens, UniProt P47895).
T2 construct: purchased Creative BioMart, NY, USA
T2 sequence (P47895 1-512): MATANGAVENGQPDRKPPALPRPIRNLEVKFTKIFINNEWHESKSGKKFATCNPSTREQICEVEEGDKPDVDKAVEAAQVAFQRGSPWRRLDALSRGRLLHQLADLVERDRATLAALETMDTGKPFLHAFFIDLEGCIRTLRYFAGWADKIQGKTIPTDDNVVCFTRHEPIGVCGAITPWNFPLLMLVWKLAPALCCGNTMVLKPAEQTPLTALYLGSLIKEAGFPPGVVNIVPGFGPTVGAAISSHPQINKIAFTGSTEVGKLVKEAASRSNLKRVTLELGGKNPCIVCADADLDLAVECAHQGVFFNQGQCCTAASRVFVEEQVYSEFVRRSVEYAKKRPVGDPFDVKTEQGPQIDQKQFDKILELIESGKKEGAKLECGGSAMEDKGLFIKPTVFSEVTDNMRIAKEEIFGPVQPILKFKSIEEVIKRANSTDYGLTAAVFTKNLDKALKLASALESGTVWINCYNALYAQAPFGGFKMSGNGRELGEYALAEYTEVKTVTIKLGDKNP
The description is as above. The format is biochemical. The note with it: for kinact/KI: from Kobs versus [I] plots; for Specificity of interaction with ALDH1A3: compared with DIMATE. How it is done: as §1, §2

In test [2] the test system is ALDH class 1 recombinant enzymes. Nature of the test: Comparison with DIMATE on ALDH class 1 recombinant enzymes. The note with it: from IC50 of Table 4. In kind it is biochemical, human. How it is done:
Human recombinant ALDH1A1, ALDH1 A2, ALDH1A3, ALDH2 (Creative BioMart, NY, USA) were prepared at 1 mg/mL. The enzymatic reactions were performed using saturating concentrations of substrate. To test the enzymatic activity of the enzymes, 10 μL of enzyme was added into a reaction buffer containing 50 mM HEPES pH 7.2, 30 mM MgCl2, plus 20 mM NAD^+ cofactor and 2 mM Hexanal (Sigma-Aldrich, St. Louis, Mo., USA) in the presence or absence of the different tested compounds. Internal standards were prepared with Nicotinamide adenine dinucleotide reduce form (NADH, 500 μM, Sigma-Aldrich) in Reaction Buffer (50 mM HEPES pH 7.2, 30 mM MgCl2).
Time-dependent inhibition assays were performed for 0-2-5-10-15-20-30-45-60 min at 37° C. in 1 mL-quartz cuvette. The formation of NADH was monitored, reading samples at excitation wavelength=340 nm/emission wavelength=460 nm (fluorescence) for at least 600 sec using Cary Eclipse Varian fluorimeter.
as §1

In the next test the test system is HL-60. The experiment in a line: Cell viability assay (Resazurin), cytotoxicity in HL60 cells. In kind it is cell-based. The note with it: Homo sapiens, HL-60, read-out: IC50 at 48 h, 48 hours of incubation. How it is done: Cell lines. Leukemic cell line, HL-60 (derived from a person with AML-M2), was used for determination of drug efficacy. Cells were obtained from the European Collection of Cell Cultures (ECACC). All cells were cultivated in appropriate media according to supplier recommendations.
Cell Viability assay, 96-well format. Cells were seeded into 96-well cell culture plates at concentrations required to ensure approximately 80% confluence in control (untreated cells) at the end of experiment (0.5×10^4-5×10^4 cell/well).
The sensitivity towards compounds according to the invention was determined using different concentrations of each compound ranging from 0.5 to 100 μM (0.5, 1, 2, 5, 10, 15, 20, 25, 30, 40, 50, 100 μM). Following 48 hours of incubation at 37° C. in a humidified atmosphere containing 5% CO2, the growth-inhibitory effect of compounds was analyzed using Resazurin, according to manufactures instructions.
To ensure good data quality and to minimize impact of pipetting errors, each compounds concentration was assessed based on mean fluorescence intensity from 8 separate wells. Compounds response were quantified by the half maximal inhibitory concentration (IC50) for each particular cell line, and determined by non-linear regression analysis of log-dose/response curves.
Statistical Analysis. Values were expressed as mean±SD or frequencies and proportions. Cell viability curves were determined using four parameter regression line. Differences between groups were determined by unpaired t test, Chi-square, Fisher's exact test or ANOVA, where appropriate. P<0.05 was considered statistically significant. Analysis was performed using GraphPad prism version 5.0 (GraphPad software, San Diego Calif. USA).

SMILES strings stand for the structures.

On to `CSC(=O)C#CC(C)(C)N(C)C` [DIMATE, S-methyl 4-(dimethylamino)-4-methylpent-2-ynethioate, reference compound], for which the kinact/KI is 7.08 M⁻¹ s⁻¹ on Human recombinant ALDH2 and 28.3 M⁻¹ s⁻¹ in test [1]. Besides, the “ALDH1A3 Inhibition Type” value in test [1] is on record as “non-specific affinity label”.

Regarding `CSC(=O)C#CC(C)(C)N(C)CCOCc1ccccc1` [Example 3, S-methyl 4-[2-benzyloxyethyl(methyl)amino]-4-methyl-pent-2-ynethioate], in test [2], the “Inhibition of the ALDH class 1 enzymes compared with DIMATE” value was “higher inhibition”. The kinact/KI on Human recombinant ALDH2 was 9 M⁻¹ s⁻¹. In test [1], the “ALDH1A3 Inhibition Type” value was “specific”, the “Specificity of interaction with ALDH1A3” value is “higher specificity” and the kinact/KI was 642 M⁻¹ s⁻¹. In addition, the IC50 in the test on HL-60 is 1170 nM.

With `CSC(=O)C#CC(C)(C)N(C)CCOCc1ccc(C)c(C)c1` [Example 5, S-methyl 4-[2-[(3,4-dimethylphenyl)methoxy]ethyl-methyl-amino]-4-methyl-pent-2-ynethioate], the “Inhibition of the ALDH class 1 enzymes compared with DIMATE” value in test [2] is reported as “higher inhibition”. Also, the second-order inactivation constant (kinact/KI) at Human recombinant ALDH2 was 40.8 M⁻¹ s⁻¹. Moreover, in test [1], the “ALDH1A3 Inhibition Type” value is listed as “specific”, the “Specificity of interaction with ALDH1A3” value is on record as “higher specificity” and the kinact/KI was 197 M⁻¹ s⁻¹. Moreover, the IC50 in the test with HL-60 was found to be 4720 nM.
